# According to PMC10610214 (Pharmaceuticals, 2023):
# Legend:
# AChE (from electric eel) = target: T1, AChE (from electric eel) (Electrophorus electricus, UniProt O42275); experiment: biochemical; settings: for IC50: AChE from electric eel, mean ± SD of three experiments, read-out: AChE Inhibition (IC50); for Selective Index, IC50 (BChE)/IC50 (AChE): AChE selectivity index
# T1 construct: AChE (from electric eel); purchased Sigma Chemical Company (St. Louis, MO, USA)
# Method: (§1) The ChE inhibitory activity of the test compounds was determined using the modified Ellman’s method. The compounds were dissolved in DMSO (10 mmol/L) and then diluted with PB (phosphate buffer) solution to attain a range of final concentrations. […] Briefly, 100 μL of different concentrations of the test or standard compounds and 100 μL of AChE/BuChE (0.5 U/mL) were added into 48-well plates and then co-incubated at 37 °C for 30 min. […] All concentrations mentioned are final.
# [1] = target: T2, BuChE (from equine serum) (Equus caballus, UniProt P81908); experiment: biochemical; settings: mean ± SD of three experiments, read-out: BuChE Inhibition (IC50)
# T2 construct: BuChE (from equine serum); purchased Sigma Chemical Company (St. Louis, MO, USA); host or cells: equine serum
# Method: as §1
# H2O2-induced PC12 cells = experiment: Neuroprotection against H2O2-induced PC12 cell injury (MTT); format: cell-based; settings: H2O2 250 μM, mean ± SEM
# Method: Neuroprotection assay is similar to cytotoxicity. Oxidative cellular damage caused by H2O2 has become one of the important methods to study oxidative damage in neural cells. PC12 cells were seeded into a 96-well plate at a density of 5.0 × 10^3 cells per well. After the cells were incubated overnight, the old medium was discarded. […] After incubating overnight, 20 μL of MTT solution (5 mg/mL, Sigma-Aldrich) was added per well, and the cells were incubated for an additional 4 h. Afterwards, the supernatant was removed and 150 μL of DMSO was added. The 96-well plate was placed on the shaker for 10–15 min, and then the absorbance at 492 nm was measured by a microplate reader.
# PC12 cells = experiment: Cytotoxicity in PC12 cells (MTT); format: cell-based
# Method: The cytotoxicity and neuroprotective effects of the compounds on PC12 cells were evaluated by MTT assay. PC12 cells were seeded into a 96-well plate at a density of 5.0 × 10^3 cells per well. After the cells were incubated overnight, the old medium was discarded. The cells were incubated for another 24 h with fresh medium containing compounds at a concentration of 30 or 50 μM. A total of 20 μL of MTT solution (5 mg/mL, Sigma-Aldrich, Shanghai, China) was then added per well, and the cells were incubated for an additional 4 h. Afterwards, the supernatant was removed and 150 μL of DMSO was added to solubilize formazan crystals. The 96-well plate was placed on the shaker for 10–15 min, and then the absorbance at 492 nm was measured by a microplate reader.
# T1 sequence (O42275 24-633): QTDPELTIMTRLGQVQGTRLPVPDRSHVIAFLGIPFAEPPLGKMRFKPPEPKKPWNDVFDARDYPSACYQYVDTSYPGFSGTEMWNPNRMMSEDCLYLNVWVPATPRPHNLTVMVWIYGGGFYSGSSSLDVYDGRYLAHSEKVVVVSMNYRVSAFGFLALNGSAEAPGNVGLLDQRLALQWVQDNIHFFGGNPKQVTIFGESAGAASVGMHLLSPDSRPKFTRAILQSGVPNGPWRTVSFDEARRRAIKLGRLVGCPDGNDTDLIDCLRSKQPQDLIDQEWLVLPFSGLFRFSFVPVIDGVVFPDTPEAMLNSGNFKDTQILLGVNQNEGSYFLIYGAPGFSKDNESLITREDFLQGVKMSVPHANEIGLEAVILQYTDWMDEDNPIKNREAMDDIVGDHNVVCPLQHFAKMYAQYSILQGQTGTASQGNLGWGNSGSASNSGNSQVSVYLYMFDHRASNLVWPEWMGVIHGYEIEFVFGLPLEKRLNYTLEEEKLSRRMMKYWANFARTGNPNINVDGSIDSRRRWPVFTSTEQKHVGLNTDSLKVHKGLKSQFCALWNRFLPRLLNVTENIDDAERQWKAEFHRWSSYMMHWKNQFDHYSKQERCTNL
# T2 sequence (P81908 whole entry): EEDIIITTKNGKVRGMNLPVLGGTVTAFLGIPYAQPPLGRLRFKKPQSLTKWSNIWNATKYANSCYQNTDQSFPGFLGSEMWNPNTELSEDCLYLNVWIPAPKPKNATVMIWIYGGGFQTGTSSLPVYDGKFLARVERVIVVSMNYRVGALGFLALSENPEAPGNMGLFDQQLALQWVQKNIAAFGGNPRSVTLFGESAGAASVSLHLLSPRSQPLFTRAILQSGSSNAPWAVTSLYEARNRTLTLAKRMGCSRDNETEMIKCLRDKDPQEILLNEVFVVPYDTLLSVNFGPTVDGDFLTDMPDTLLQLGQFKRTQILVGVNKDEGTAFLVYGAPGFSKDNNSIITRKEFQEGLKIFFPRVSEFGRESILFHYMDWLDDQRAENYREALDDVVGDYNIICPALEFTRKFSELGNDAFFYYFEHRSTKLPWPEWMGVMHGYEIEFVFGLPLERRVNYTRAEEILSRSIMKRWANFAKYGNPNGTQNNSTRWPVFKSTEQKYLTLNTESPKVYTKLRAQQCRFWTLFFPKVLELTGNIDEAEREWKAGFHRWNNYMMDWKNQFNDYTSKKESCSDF
Structure (SMILES),IC50 (AChE (from electric eel)) [µM],"Selective Index, IC50 (BChE)/IC50 (AChE) (AChE (from electric eel))",IC50 [1] [µM],H2O2-Induced PC12 Cell Viability (% of Control) (H2O2-induced PC12 cells; compound 10 μM),H2O2-Induced PC12 Cell Viability (% of Control) (H2O2-induced PC12 cells; compound 30 μM),Cell Viability (% of Control) (PC12 cells; compound 30 μM),Cell Viability (% of Control) (PC12 cells; compound 50 μM)
O=C1c2cc(NS(=O)(=O)c3ccccc3)ccc2-n2c1nc1ccccc1c2=O [4a],0.97 ± 0.16,10.3,9.98 ± 0.64,43.29 ± 3.1 % of Control,48.5 ± 1.5 % of Control,99.5 ± 1.7 % of Control,98.3 ± 3.0 % of Control
Cc1ccc(S(=O)(=O)Nc2ccc3c(c2)C(=O)c2nc4ccccc4c(=O)n2-3)cc1 [4b],5.75 ± 0.27,1.5,8.61 ± 1.2,47.36 ± 1.7 % of Control,59.09 ± 2.5 % of Control,99.7 ± 0.9 % of Control,99.5 ± 1.5 % of Control
CC(C)(C)c1ccc(S(=O)(=O)Nc2ccc3c(c2)C(=O)c2nc4ccccc4c(=O)n2-3)cc1 [4c],2.56 ± 0.32,3.2,8.13 ± 1.21,45.59 ± 0.7 % of Control,56.4 ± 1.2 % of Control,99.5 ± 3.1 % of Control,98.2 ± 1.7 % of Control
CC(C)c1cc(C(C)C)c(S(=O)(=O)Nc2ccc3c(c2)C(=O)c2nc4ccccc4c(=O)n2-3)c(C(C)C)c1 [4d],> 50,–,> 50,42.53 ± 2.7 % of Control,50.1 ± 0.8 % of Control,99.4 ± 2.4 % of Control,97.3 ± 3.6 % of Control
O=C1c2cc(NS(=O)(=O)c3ccc(Br)cc3)ccc2-n2c1nc1ccccc1c2=O [4e],33 ± 1.91,–,> 50,42.8 ± 1.5 % of Control,57.51 ± 0.8 % of Control,99.6 ± 2.1 % of Control,99.5 ± 2.3 % of Control
O=C1c2cc(NS(=O)(=O)c3ccc(F)cc3)ccc2-n2c1nc1ccccc1c2=O [4f],0.56 ± 0.07,21.2,11.9 ± 1.86,45.23 ± 2.2 % of Control,55.26 ± 0.5 % of Control,99.4 ± 1.6 % of Control,98.7 ± 1.1 % of Control
O=C1c2cc(NS(=O)(=O)c3cccc(F)c3)ccc2-n2c1nc1ccccc1c2=O [4g],3.21 ± 0.39,6.7,21.6 ± 1.79,59.88 ± 0.9 % of Control,68.83 ± 2.7 % of Control,100 ± 1.3 % of Control,99.7 ± 0.8 % of Control
CC(=O)Nc1ccc(S(=O)(=O)Nc2ccc3c(c2)C(=O)c2nc4ccccc4c(=O)n2-3)cc1 [4i],8.8 ± 1.23,–,> 50,34.43 ± 5.5 % of Control,40.93 ± 2.9 % of Control,99.6 ± 1.7 % of Control,98.3 ± 3.0 % of Control
COc1ccc(S(=O)(=O)Nc2ccc3c(c2)C(=O)c2nc4ccccc4c(=O)n2-3)cc1 [4j],> 50,–,> 50,38.24 ± 3.1 % of Control,41.69 ± 1.7 % of Control,99.7 ± 1.6 % of Control,99.1 ± 1.2 % of Control
COc1ccc(S(=O)(=O)Nc2ccc3c(c2)C(=O)c2nc4ccccc4c(=O)n2-3)cc1OC [4k],25.4 ± 1.53,–,> 50,44.35 ± 1.5 % of Control,46.23 ± 0.6 % of Control,98.8 ± 1.9 % of Control,98.2 ± 3.4 % of Control
